Data: publication PMC2806525, “Proteinase-activated receptor-2 mediated inhibition of TNFα-stimulated JNK activation — A novel paradigm for Gq/11 linked GPCRs” (Cellular Signalling, 2010)
Entries after “also recorded” stand apart in the source; their conditions may differ. Residues, ends and D or L forms follow the SMILES beside them.

What was measured:
[1] = test system: PKC; assay: TNFα-stimulated JNK activity, PKC activator / PKC inhibitor, PAR2 NCTC2544 cells; format: cell-based, human
Experimental: (§1) Human skin epithelial cells NCTC2544 were maintained in M199 medium with Earl's salt supplement, 10% (v/v) foetal calf serum, L-glutamine (27 µg/ml), penicillin (250 U/ml), and streptomycin (25 mg/ml). NCTC2544 cells stably expressing human PAR2 (clone G) were maintained in complete M199 medium containing 400 μg/ml of Geneticin for selection pressure and passaged using Versene (2% EDTA/PBS). EAhy-926 cells were produced by hybridizing human umbilical vein endothelial cells (HUVECs) with the epithelial cell line A549 [27] and maintained in Dulbecco's Modified Eagle's Medium (DMEM) supplemented with 10% foetal calf serum (FCS), hypoxanthine/aminopterin/thymidine (HAT supplement), penicillin (250 U/ml) and streptomycin (25 mg/ml), and cells were passaged using Versene.
To measure JNK activity, cells were stimulated as appropriate and the reaction terminated by rapid aspiration and the addition of ice-cold PBS. The cells were solubilised in 20 mM HEPES buffer, pH 7.7, containing 50 mM NaCl, 0.1 mM EDTA, 0.1 mM Na3VO4, 0.1 mM PMSF, 10 mg/ml aprotinin, 10 mg/ml leupeptin, and 1% (w/v) Triton X-100. Lysates were clarified by centrifugation for 5 min at 13,000 rpm and equal amounts of protein were incubated with 20 μg of GST-c-Jun-(5–89) immobilized on glutathione-Sepharose at 4 °C for 3 h. Beads were then washed three times in solubilisation buffer and twice in 25 mM HEPES buffer, pH 7.6, containing 20 mM β-glycerophosphate, 0.1 mM NaV3O4, and 2 mM dithiothreitol. Precipitates were then incubated with the same buffer containing 25 μM/0.5 μCi of ATP/[γ-^32P] ATP in a final volume of 30 µl at 30 °C for 30 min. The reactions were terminated by the addition of 4× SDS-sample buffer and aliquots of each sample subjected to electrophoresis on 11% SDS-polyacrylamide gel electrophoresis. Phosphorylation of GST-c-Jun was then determined by autoradiography.
Where experimental data is shown as a blot, this represents one of at least 3 experiments and data represents the mean ± s.e.m. Statistical analysis was by one-way ANOVA with Dunnett's post test (*P < 0.05, **P < 0.01).
Fig. 5 Pharmacological blockade of protein kinase C reverses PAR2 mediated inhibition of TNFα-stimulated JNK activation. PAR2 expressing NCTC2544 cells (clone G) were pre-incubated with increasing concentrations of GF109203X (GFX) for 30 min then incubated for a further 30 min with 100 nM PMA (Panel A) or 30 nM trypsin (Panel B) prior to stimulation for a further 30 min with TNFα(+) (10 ng/ml). Samples were assessed for JNK activity (Panels A and B) or phospho-JNK levels (Panel D) as outlined in the Methods section. Gels from JNK activity assays were quantified by densitometry (Panel C). Each value represents the mean ± s.e.m from at least 4 experiments. ⁎⁎P < 0.01 compared to TNFα and trypsin stimulated.

[2] = test system: PKC; assay: TNFα-stimulated JNK phosphorylation, PKC activator / PKC inhibitor, PAR2 NCTC2544 cells; format: cell-based, human; conditions: GF109203X 10 μM; trypsin or SLIGKV-OH; TNFα 10 ng/ml 30 min
Experimental: as §1
Proteins were separated by 10% SDS–PAGE and transferred onto nitrocellulose. The membranes were blocked for non-specific binding for 2 h in 2% BSA (w/v) diluted in NATT buffer (50 mM Tris–HCl, 150 mM NaCl, 0.2% (v/v) Tween-20). […]
Fig. 5 Pharmacological blockade of protein kinase C reverses PAR2 mediated inhibition of TNFα-stimulated JNK activation. […] Samples were assessed for JNK activity (Panels A and B) or phospho-JNK levels (Panel D) as outlined in the Methods section. Gels from JNK activity assays were quantified by densitometry (Panel C). […]

[3] = test system: TNFR1/TRADD; assay: TNFR1/TRADD complex formation (TNFR1 immuno-precipitation, TRADD immuno-blot), PAR2 expressing cells; format: cell-based, human; conditions: 100 nM YM254890 or 3 μM GF109203X 30 min, peptide 100 μM 30 min, TNFα 10 ng/ml 30 min
Experimental: as §1
Proteins were separated by 10% SDS–PAGE and transferred onto nitrocellulose. The membranes were blocked for non-specific binding for 2 h in 2% BSA (w/v) diluted in NATT buffer (50 mM Tris–HCl, 150 mM NaCl, 0.2% (v/v) Tween-20). The blots were then incubated overnight with 50 ng/ml primary antibody diluted in 0.2% BSA (w/v) in NATT buffer. The blots were washed with NATT buffer for 90 min and incubated with HRP-conjugated secondary antibody (20 ng/ml in 0.2% BSA (w/v) diluted in NATT buffer) for 2 h. After a further 90 min wash, the blots were subjected to ECL reagent and exposed to Kodak X-ray film.
For immuno-precipitation of TNFR1, equal amounts of pre-cleared cell lysates were incubated in Tris–HCl buffer, pH 7.4, containing 50 mM NaCl, 1 mM EDTA, 1 mM EGTA, 1% (w/v) Triton X-100, and 0.5% (w/v) Nonidet P-40, with 2 μg TNFR1 antibody, pre-coupled to protein G, for 3 h. Lysates were recovered by sequential washes in solubilisation buffer and in the same buffer lacking detergents. Precipitates were assessed for TRADD or RIP content using Western blotting.
Fig. 7 PAR2 mediated TNFR1 adapter protein disruption in PAR2 expressing cells. In Panel A, cells were pre-treated with peptide (100 μM) or vehicle prior to stimulation with TNFα (10 ng/ml) for 30 min. Lysates were immuno-precipitated for TNFR1 and immuno-blotted for TRADD and/or RIP, as outlined in the Methods section. In Panel B cells were pre-treated with 100 nM YM254890 or 3 μM GF109203X for 30 min prior to pre-treatment with peptide (100 μM), for 30 min, then incubated for a further 30 min with TNFα (10 ng/ml). TNFR1 immuno-precipitates were immuno-blotted for TRADD. Each gel is representative of at least three experiments.

[4] = test system: PKC isoforms; conditions: cited from earlier work
Excerpt: We then examined the potential signalling pathways which could be mediating the inhibitory effects of PAR2. PAR2 is coupled to a number of signalling pathways via G-protein dependent and independent mechanisms. […] Therefore, we tested the effect of the PKC inhibitor GF109203X on PAR2 mediated inhibition of JNK activity and phosphorylation. ... || We then sought to investigate the possible mechanisms by which PAR2 mediated inhibition of JNK might occur. […] This is typical of a number of keratinocyte cell type ...

[5] = target: T1, human PAR2 (Homo sapiens, UniProt P55085); assay: TNFα-stimulated JNK activity (in vitro c-Jun phosphorylation), PAR2 agonist pre-incubation, PAR2 NCTC2544 cells (clone G); format: cell-based; conditions: 30 min pre-incubation, then TNFα 30 min, mean ± s.e.m, at least 4 experiments
T1 construct: expressed in transfected cells
T1 sequence (P55085 26-397): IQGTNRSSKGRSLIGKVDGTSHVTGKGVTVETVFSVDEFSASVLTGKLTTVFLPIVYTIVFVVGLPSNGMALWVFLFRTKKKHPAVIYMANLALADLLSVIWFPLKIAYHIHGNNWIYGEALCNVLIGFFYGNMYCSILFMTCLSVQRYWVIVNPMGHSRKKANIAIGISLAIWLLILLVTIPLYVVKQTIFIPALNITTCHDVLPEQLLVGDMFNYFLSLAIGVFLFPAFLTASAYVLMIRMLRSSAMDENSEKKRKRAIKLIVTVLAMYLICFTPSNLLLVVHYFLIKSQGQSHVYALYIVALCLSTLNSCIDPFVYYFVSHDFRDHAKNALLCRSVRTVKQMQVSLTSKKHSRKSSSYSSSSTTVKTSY
Experimental: as §1
To measure JNK activity, cells were stimulated as appropriate and the reaction terminated by rapid aspiration and the addition of ice-cold PBS. […] Phosphorylation of GST-c-Jun was then determined by autoradiography. […]
Fig. 1 PAR2 activation mediates inhibition of TNFα-stimulated JNK activity and phosphorylation in PAR2 NCTC2544 cells. […] Samples were assessed for JNK activity (Panel A) or phospho-JNK levels (Panel C) as outlined in the Methods section. Gels from JNK assays were quantified (Panel B). Each value represents the mean ± s.e.m from at least 4 experiments and data was quantified by densitometry. ⁎P < 0.05, ⁎⁎P < 0.01 compared to TNFα alone.
(§2) Fig. 4 Concentration response effects of PAR2 peptides for activation of JNK and inhibition of TNFα-stimulated JNK. PAR2 expressing NCTC2544 cells (clone G) were incubated with increasing concentrations of SLIGKV-OH or 2f-LIGKV-OH for 30 min and assayed for JNK activity (Panel B) or stimulated for a further 30 min with TNFα (+) before JNK activity was assessed (Panel A). Samples were assessed for JNK activity as outlined in the Methods section. Gels from JNK assays were quantified (Panel C). Each value represents the mean ± s.e.m from at least 4 experiments and data was quantified by densitometry.

[6] = target: T1, human PAR2; assay: JNK activity, agent alone, PAR2 NCTC2544 cells (clone G); format: cell-based; conditions: 30 min, no TNFα, mean ± s.e.m, at least 4 experiments
Experimental: as §1
To measure JNK activity, cells were stimulated as appropriate and the reaction terminated by rapid aspiration and the addition of ice-cold PBS. The cells were solubilised in 20 mM HEPES buffer, pH 7.7, containing 50 mM NaCl, 0.1 mM EDTA, 0.1 mM Na3VO4, 0.1 mM PMSF, 10 mg/ml aprotinin, 10 mg/ml leupeptin, and 1% (w/v) Triton X-100. Lysates were clarified by centrifugation for 5 min at 13,000 rpm and equal amounts of protein were incubated with 20 μg of GST-c-Jun-(5–89) immobilized on glutathione-Sepharose at 4 °C for 3 h. […] Phosphorylation of GST-c-Jun was then determined by autoradiography. […]
as §2

**Q.** Which results are given for `CN(C)CCCn1cc(C2=C(c3c[nH]c4ccccc34)C(=O)NC2=O)c2ccccc21` [GF109203X]?
**A.** reversal of PAR2 mediated inhibition of JNK activity by PKC inhibitor ([1]; GF109203X 10 μM (maximal concentration), trypsin 30 nM or SLIGKV-OH, TNFα 10 ng/ml 30 min): reversed the inhibitory effect of trypsin and SLIGKV-OH on TNFα-stimulated JNK activation; reversal of PAR2 mediated JNK inhibition by PKC inhibitor, general statement ([1]; abstract / discussion): the effects of both agents were reversed; also recorded: good reversal of PAR2 mediated inhibition; reversal of PMA effect on TNFα-stimulated JNK activity ([1]; micromolar concentrations GF109203X 30 min, 100 nM PMA 30 min, TNFα 10 ng/ml 30 min): reversed by micromolar concentrations; reversal of PAR2 mediated inhibition of JNK phosphorylation by PKC inhibitor [2]: reversed the inhibitory effect; reversal of PAR2 mediated disruption of TNFR1/TRADD complex [3]: effectively reversed PAR2 mediated disruption; PKC isoform inhibition ([4]; ref [40–42]): block both Ca^2+-dependent and some novel PKC isoforms

**Q.** For `Cn1c2ccccc2c2c3c(c4c5ccccc5n(CCC#N)c4c21)CNC3=O` [Go6976], which “effect of classical PKC inhibitor on PAR2 mediated JNK inhibition” value ([1]; not shown) is on record?
**A.** Its value is “without effect”.

**Q.** And the “PKC isoform preference” value ([4]; no reference given)?
**A.** The value was “preferentially inhibits the classical group of PKC isoforms”.

**Q.** Which IC50 ([5]; densitometry, read-out: IC50, inhibition of TNFα-stimulated JNK activity) does the source give for `CC[C@H](C)[C@H](NC(=O)[C@H](CC(C)C)NC(=O)[C@@H](N)CO)C(=O)NCC(=O)N[C@@H](CCCCN)C(=O)N[C@H](C(=O)O)C(C)C` [SLIGKV-OH] (H-SLIGKV-OH) here?
**A.** The IC50 was 6.24 ± 1.32 µM.

**Q.** And the “% inhibition of TNFα-stimulated JNK activity” value ([5]; maximal efficacy comparison)?
**A.** The value was 93.567 ± 6.882%.

**Q.** And the EC50 ([6]; densitometry, read-out: EC50, stimulation of JNK activity by peptide alone)?
**A.** Its EC50 is 10.1 ± 3.3 µM.

**Q.** What about the “% stimulation of JNK activity alone” value ([6]; maximal efficacy comparison) of the same molecule?
**A.** The value was 43.950 ± 6.482%.
